Results taken from patent US4012576A, “Antibiotic complex Bu 2183” (priority 1975, dated 1977).
Values after ≈ are worked out from the molar mass of the structure shown. Where two headings read alike, the source gives them in different places.

What was measured:
Ser. marcescens A21247 = assay: MIC, two-fold agar dilution on Nutrient Agar; format: cell-based; details: Serratia marcescens, A21247, Table 6, Sm-16; read-out: MIC
Experimental: (§1) The minimum inhibitory concentrations (MIC) of Bu-2183 A and B were determined against a wide variety of bacteria by the two-fold agar dilution method on Nutrient Agar plates. The inocula-replicating device of Steers et al. was used. Inoculum size was adjusted to be 10^4 dilution of overnight culture of the test organisms in Heart Infusion Broth (Difco). The results are shown in Table 6 along with those of kanamycin which was comparatively tested as a reference antibiotic.

Prov. stuartii A20894 = assay: MIC, two-fold agar dilution on Nutrient Agar; format: cell-based; details: Providencia stuartii, A20894; Table 6, Ps-2; read-out: MIC
Experimental: as §1

S. aureus Smith = assay: MIC, two-fold agar dilution on Nutrient Agar; format: cell-based; details: Staphylococcus aureus, Table 6, Sa-2; read-out: MIC
Experimental: as §1

K. pneumoniae D11 = assay: MIC, two-fold agar dilution on Nutrient Agar; format: cell-based; details: Klebsiella pneumoniae, D11, Table 6, Kp-1; read-out: MIC
Experimental: as §1

Ps. aeruginosa A20653 = assay: MIC, two-fold agar dilution on Nutrient Agar; format: cell-based; details: Pseudomonas aeruginosa, A20653, Table 6, Pa-12; read-out: MIC
Experimental: as §1

E. coli R 5 = assay: MIC, two-fold agar dilution on Nutrient Agar; format: cell-based; details: Escherichia coli, R5, Table 6, Ec-55
Experimental: as §1

E. coli PO 1495 = assay: MIC, two-fold agar dilution on Nutrient Agar; format: cell-based; details: Escherichia coli, PO1495; Table 6, Ec-2; read-out: MIC
Experimental: as §1

E. coli A20895 = assay: MIC, two-fold agar dilution on Nutrient Agar; format: cell-based; details: Escherichia coli, A20895, Table 6, Ec-62; read-out: MIC
Experimental: as §1

S. aureus D133 = assay: MIC, two-fold agar dilution on Nutrient Agar; format: cell-based; details: Staphylococcus aureus, D133, Table 6, Sa-4; read-out: MIC
Experimental: as §1

Ps. aeruginosa A20896 = assay: MIC, two-fold agar dilution on Nutrient Agar; format: cell-based; details: Pseudomonas aeruginosa, A20896, Table 6, Pa-24; read-out: MIC
Experimental: as §1

Ser. marcescens A20019 = assay: MIC, two-fold agar dilution on Nutrient Agar; format: cell-based; details: Serratia marcescens, A20019; Table 6, Sm-1; read-out: MIC
Experimental: as §1

S. aureus A20239 = assay: MIC, two-fold agar dilution on Nutrient Agar; format: cell-based; details: Staphylococcus aureus, A20239, Table 6, Sa-10; read-out: MIC
Experimental: as §1

E. coli JR 35/C600 = assay: MIC, two-fold agar dilution on Nutrient Agar; format: cell-based; details: Escherichia coli, JR35/C600
Experimental: as §1

E. coli A20732 = assay: MIC, two-fold agar dilution on Nutrient Agar; format: cell-based; details: Escherichia coli, A20732; Table 6, Ec-72; read-out: MIC
Experimental: as §1

Ps. aeruginosa GN 315 = assay: MIC, two-fold agar dilution on Nutrient Agar; format: cell-based; details: Pseudomonas aeruginosa, GN315; Table 6, Pa-27; read-out: MIC
Experimental: as §1

Pseudomonas sp. A20621 = assay: MIC, two-fold agar dilution on Nutrient Agar; format: cell-based; details: Pseudomonas, SP.A20621; Table 6, Px-10; read-out: MIC
Experimental: as §1

Pr. mirabilis A9554 = assay: MIC, two-fold agar dilution on Nutrient Agar; format: cell-based; details: Proteus mirabilis, A9554, Table 6, Pm-1; read-out: MIC
Experimental: as §1

Ps. aeruginosa A9930 = assay: MIC, two-fold agar dilution on Nutrient Agar; format: cell-based; details: Pseudomonas aeruginosa, A9930; Table 6, Pa-3; read-out: MIC
Experimental: as §1

S. aureus D193 = assay: MIC, two-fold agar dilution on Nutrient Agar; format: cell-based; details: Staphylococcus aureus, D193; Table 6, Sa-3; read-out: MIC
Experimental: as §1

E. coli JR 66/W677 = assay: MIC, two-fold agar dilution on Nutrient Agar; format: cell-based; details: Escherichia coli, JR66/W677, Table 6, Ec-53
Experimental: as §1

Ent. cloacae A21006 = assay: MIC, two-fold agar dilution on Nutrient Agar; format: cell-based; details: Enterobacter cloacae, A21006; Table 6, El-12; read-out: MIC
Experimental: as §1

[1] = system: K. pneumoniae Type 22-3038; assay: MIC, two-fold agar dilution on Nutrient Agar; format: cell-based; details: Klebsiella pneumoniae, TYPE223038; Table 6, Kp-8; read-out: MIC
Experimental: as §1

E. coli A20107 = assay: MIC, two-fold agar dilution on Nutrient Agar; format: cell-based; details: Escherichia coli, A20107, Table 6, Ec-49; read-out: MIC
Experimental: as §1

Pr. vulgaris A9436 = assay: MIC, two-fold agar dilution on Nutrient Agar; format: cell-based; details: Proteus vulgaris, A9436, Table 6, Pv-1; read-out: MIC
Experimental: as §1

E. coli NIHJ = assay: MIC, two-fold agar dilution on Nutrient Agar; format: cell-based; details: Escherichia coli, Table 6, Ec-1; read-out: MIC
Experimental: as §1

Ps. aeruginosa No. 130 = assay: MIC, two-fold agar dilution on Nutrient Agar; format: cell-based; details: Pseudomonas aeruginosa, NO.130; Table 6, Pa-16; read-out: MIC
Experimental: as §1

S. aureus D137 = assay: MIC, two-fold agar dilution on Nutrient Agar; format: cell-based; details: Staphylococcus aureus, D137, Table 6, Sa-9; read-out: MIC
Experimental: as §1

E. coli NR 79/W677 = assay: MIC, two-fold agar dilution on Nutrient Agar; format: cell-based; details: Escherichia coli, NR79/W677, Table 6, Ec-9
Experimental: as §1

Titration in water = format: physicochemical
Acute toxicity in mice = details: for no death at doses up to: mouse, in vivo, 21600 min
Experimental: The acute toxicity of Bu-2183 A and B was determined in mice by the subcutaneous and intravenous routes.

Question: What does the source list for CC(=O)NC1C(CO)OC(OC(C(O)CN)C(N)C(O)CO)C(O)C1O (stereo not drawn) [Bu-2183 B]?
Answer: MIC (Ser. marcescens A21247): > 100 µg/mL; MIC (Prov. stuartii A20894): > 100 µg/mL; MIC (S. aureus Smith): 50 µg/mL (≈ 130 µM); MIC (K. pneumoniae D11): 12.5 µg/mL (≈ 32.6 µM); MIC (Ps. aeruginosa A20653): 100 µg/mL (≈ 261 µM); MIC (E. coli R 5): 100 µg/mL (≈ 261 µM); MIC (E. coli PO 1495): 50 µg/mL (≈ 130 µM); MIC (E. coli A20895): 50 µg/mL (≈ 130 µM); MIC (S. aureus D133): > 100 µg/mL; MIC (Ps. aeruginosa A20896): 100 µg/mL (≈ 261 µM); MIC (Ser. marcescens A20019): > 100 µg/mL; MIC (S. aureus A20239): 100 µg/mL (≈ 261 µM); MIC (E. coli JR 35/C600): 12.5 µg/mL (≈ 32.6 µM); MIC (E. coli A20732): 25 µg/mL (≈ 65.2 µM); MIC (Ps. aeruginosa GN 315): 50 µg/mL (≈ 130 µM); MIC (Pseudomonas sp. A20621): > 100 µg/mL; MIC (Pr. mirabilis A9554): 25 µg/mL (≈ 65.2 µM); MIC (Ps. aeruginosa A9930): 25 µg/mL (≈ 65.2 µM); MIC (S. aureus D193): 25 µg/mL (≈ 65.2 µM); MIC (E. coli JR 66/W677): 25 µg/mL (≈ 65.2 µM); MIC (Ent. cloacae A21006): 100 µg/mL (≈ 261 µM); MIC [1]: 100 µg/mL (≈ 261 µM); MIC (E. coli A20107): 50 µg/mL (≈ 130 µM); MIC (Pr. vulgaris A9436): 50 µg/mL (≈ 130 µM); MIC (E. coli NIHJ): 50 µg/mL (≈ 130 µM); MIC (Ps. aeruginosa No. 130): 100 µg/mL (≈ 261 µM); MIC (S. aureus D137): > 100 µg/mL; MIC (E. coli NR 79/W677): 100 µg/mL (≈ 261 µM); pKa (Titration in water; read-out: pKa' (first value)): 7.15; pKa (Titration in water; read-out: pKa' (second value)): 9.35; acute toxicity compared with Bu-2183 A (Acute toxicity in mice; mice, i.v. and s.c.): much less toxic than Bu-2183 A; no death at doses up to (Acute toxicity in mice; iv): ≥ 2000 mg/kg; no death at doses up to (Acute toxicity in mice; sc): ≥ 2000 mg/kg
